In US11878972B2, “Treatment of neurological disorders” (TORQUR AG, priority 2016, dated 2024):

Experiments:
in vivo = settings: B57BL/6J, mouse
Protocol: 8, 50 mg/kg was administered to B57BL/6J mice by gavage. Animals were housed in temperature controlled rooms with free access to food and water. Test items were weighed in a glass vial and dissolved first in DMSO. Tween 80 was added subsequently and finally, the formulation was completed with HPβCD 20%. […] Blood was collected in tubes containing K3-EDTA and stored on ice until centrifugation at 3000×g (10 min. 4° C.). The plasma supernatant was separated and kept at −20° C. until being assayed. Thigh muscle and brain of mice were snap frozen. The brain and muscle samples were homogenized in PBS using the Precellys 24/Dual homogeniser.
Samples were analyzed by LC-MS. Calibration standards were prepared by spiking 20 μl of drug free blank plasma with calibration solution. […] Samples were vigorously shaken and centrifuged for 10 minutes at 6000 g and 20° C. […] An aliquot was transferred to 200 μl sampler vials and subsequently subjected to LC-MS with an injection volume of 1.5 μl.

[1] = system: mTOR signaling cascade (phosphorylation of S6rP and AKT); test: Target engagement in brain and thigh muscle (western blot); assay type: in vivo, mouse; settings: single oral 50 mg/kg
Protocol: Tissue was snap frozen in liquid nitrogen and stored at −80° C. Tissue was thawed and lysed in RIPA buffer 1 ml/half brain. Complete protease inhibitor and PhosStop phosphatase inhibitor (Roche) was added to the buffer before lysis. Tissue was homogenized manually and centrifuged twice at 16000 rpm, 4° C. for 20 minutes. Supernatant was frozen with 10% glycerol at −80° C. Protein concentration was performed using Bradford reagent. For western blot analysis of AKT and S6rP phosphorylation, 30 μg of protein was denatured with β-mercaptoethanol at 95° C. and separated on SDS page gels at 100 V. Then proteins were transferred to a nitrocellulose membrane (Bio-Rad, USA) at 80 V. Non-specific binding was blocked with 5% bovine serum albumin (BSA) (Sigma-Aldrich, USA). Membranes were incubated over night with primary antibody dissolved in TBST, 5% BSA at 4° C. and with secondary antibody coupled to horseradish peroxidase (GE Healthcare, UK) for 1 hour at RT and washed. Imaging of protein bands was performed using Luminol (Biozym, Hamburg, Germany. On a Li-Cor Odyssey FC reader. Quantification of S6-phosphorylation was determined with the same imaging system.
The following antibodies were used: • AKT, P-AKT (S473), S6rP, P-S6rP(S235/236): Cell Signaling (UK) • β-actin: Sigma Aldrich, USA

[2] = system: R6/2 mice (mutHTT aggregates in the striatum); test: Immunohistochemistry of mutHTT aggregates in striata of long-term treated R6/2 mice; assay type: in vivo, mouse; settings: p.o. 11.5 weeks, Cpd. 3 65 mg/kg, Cpd. 8 16.25 mg/kg, versus vehicle controls
Description: An in vivo model of Huntington's disease was used to evaluate the efficacy of Cpd. 3 and cpd. 8 in reducing mutHTT aggregate formation in the striatum. R6/2 mice are a B6CBA-Tg(HDexon1)62Gbp/3J Huntington's disease mouse model expressing exon 1 of the human huntingtin gene with an extension of 160 f 5 CAG repeats. Mice have a severe phenotype that develops between 4 and 12 weeks.
Treatment groups were established from genotype and measurement of weight, rotarod performance and litter. They were distributed equally over the four groups, each group contained 12 animals. R6/2 mice and their wt counterparts were dosed in the following treatment groups: 1. Wt, vehicle (20% SBECD in water, pH 3); 2. R6/2 vehicle (20% SBECD in water, pH 3); 3. R6/2 Cpd. 3 (65 mg/kg); 4. R6/2 Cpd.8 (16.25 mg/kg). Per oral dosing was performed for 6 days with a following drug holiday of 1 day for a total of 11.5 weeks.
To detect mutHTT aggregates, immunostaining of striata was performed. […]
Images were acquired using a Zeiss Axioplan microscope (Plan-NEOFLUAR×40/0.75 objective, AxioCam MRc) and Axiovision 4.8 software (Carl Zeiss Microscopy GmbH, Jena, Germany). Per animal three subsequent sections of the striatum were analyzed, 4 animals were analysed The EM48 positive structures were analyzed with the ImageJ built in particle analysis, with a fixed threshold for all pictures (ImageJ 1.47v; NIH, Bethesda, MD, USA). […]

Tsc1GFAP knockout mice = test: Electrographic seizures in Tsc1 GFAP conditional knockout mice
Protocol: Tsc1 mice belonging to either sex were acclimated to the environment, examined, handled, and weighed prior to initiation of the study to assure adequate health and suitability and to minimize non-specific stress associated with human handling. During the course of the study, 12/12 light/dark cycles were maintained. The room temperature was maintained between 20 and 23° C. with a relative humidity maintained around 50%. Food and water were provided ad libitum for the duration of the study. Each mouse was randomly assigned to designated treatment groups. The dosing was performed during the animals' light cycle phase.
Aseptic technique was used throughout the surgical procedures described below. […] Adequate plane of anesthesia was insured by the lack of a withdrawal response to toe pinch and a visible change in the breathing rate. The mouse head was immobilized in a stereotaxic frame with a nose piece that supplied the anesthetic continuously. Ophthalmic ointment was applied to the eyes to prevent drying of the cornea. […]
EEG was recorded using 10× or 100× gain pre-amplifiers. […]
Simultaneously, videographic recording was made through this period to provide a data stream for behavioral evaluation of the mice as needed. After the recording period was completed, individual EEG traces were evaluated for aberrant EEG activity. […]

pPKB S473 in A2058 cells = test: In-cell Western blot, pPKB S473; assay type: cell-based; settings: Homo sapiens, treated for 1 hour, normalized to α-tubulin
Protocol: (§1) Cells are fixed with 4% paraformaldehyde for 30 minutes at room temperature, washed 2 times with 1% BSA in PBS, permeabilized with 0.1% Triton X-100 in PBS/1% BSA for 30 minutes at room temperature and blocked with 5% goat serum in PBS/1% BSA/0.1% Triton X-100 for 30 minutes at room temperature. […] Cells are washed 3 times 5 minutes with PBS/1% BSA/0.1% triton and plate scanned with the Odyssey Infrared Scanning system using both 700 and 800 nm channels. […] To correct for background staining in the data analysis wells are treated only with secondary antibodies.
(§2) For data analysis the mean background signal from channel 700 nm and 800 nm are subtracted from each signal in channel 700 nm and 800 nm, respectively.
(§3) IC50 values of each compound are determined by plotting the normalized pPBK S473 and pS6 S235/S236 signals, respectively, versus the compound concentrations (in logarithmic scale) and then by fitting a sigmoidal dose-response curve with variable slope to the data using GraphPad™ Prism.

[3] = system: pS6 S235/S236 in A2058 cells; test: In-cell Western blot, pS6 S235/S236; assay type: cell-based; settings: Homo sapiens, A2058, 1 h, treated for 1 hour, normalized to α-tubulin
Protocol: as §1, §2, §3

Molecule `Nc1cc(C(F)F)c(-c2nc(N3C4CCC3COC4)nc(N3C4CCC3COC4)n2)cn1` [Compound 3, 5-(4-(3-oxa-8-azabicyclo[3.2.1]octan-8-yl)-6-(3-oxa-8-azabicyclo[3.2.1]octan-8-yl)-1,3,5-triazin-2-yl)-4-(difluoromethyl)pyridin-2-amine] has a half-life (in vivo; half-life) of 5 h, an AUC (in vivo; po, 50 mg/kg) of 20500 ng·h/mL and a Tmax (in vivo; po, 50 mg/kg) of 0.5 h. The half-life (in vivo; po, 50 mg/kg, Brain t1/2) was 5 h, the half-life (in vivo; po, 50 mg/kg, Plasma t1/2) was 5.3 h and the half-life (in vivo; po, 50 mg/kg, half-life in mice (estimated)) was 4.7 to 4.8 h. For the same molecule, the “phosphorylation of S6rP and AKT in brain and thigh muscle” value ([1]; B57BL/6J mice) was “significantly reduced phosphorylation of S6rP and AKT”, the “S6 phosphorylation in brain lysates” value ([1]; mice, 30 minutes to 8 hours) was “reduction of S6 phosphorylation” and the “S6 phosphorylation in thigh muscle lysates” value ([1]; mice, 30 minutes to 8 hours) was “reduction of S6 phosphorylation”. For the same molecule, the “number of mutHTT aggregates counted in striata” value [2] was “not changed”, the Body weight (Tsc1GFAP knockout mice; TSC1 GFAP mice, during treatment) was “higher towards the end of the study” and the “effect on spontaneous electrographic seizures” value (Tsc1GFAP knockout mice; Tsc1 GFAP mice, chronic treatment) was “strongly reduce spontaneous seizures”.
Molecule `C[C@H]1COCCN1c1nc(-c2cnc(N)cc2C(F)F)nc(N2CCOCC2)n1` [Compound 8, (S)-4-(difluoromethyl)-5-(4-(3-methylmorpholino)-6-morpholino-1,3,5-triazin-2-yl)pyridin-2-amine] has an IC50 (pPKB S473 in A2058 cells) of 74 nM and an IC50 [3] of 68 nM.
